# Target: T1, human PAH with the R408W mutation (Homo sapiens, UniProt P00439, R408W)
# T1 construct: expressed in transfected cells
# T1 sequence (P00439 1-452 R408W): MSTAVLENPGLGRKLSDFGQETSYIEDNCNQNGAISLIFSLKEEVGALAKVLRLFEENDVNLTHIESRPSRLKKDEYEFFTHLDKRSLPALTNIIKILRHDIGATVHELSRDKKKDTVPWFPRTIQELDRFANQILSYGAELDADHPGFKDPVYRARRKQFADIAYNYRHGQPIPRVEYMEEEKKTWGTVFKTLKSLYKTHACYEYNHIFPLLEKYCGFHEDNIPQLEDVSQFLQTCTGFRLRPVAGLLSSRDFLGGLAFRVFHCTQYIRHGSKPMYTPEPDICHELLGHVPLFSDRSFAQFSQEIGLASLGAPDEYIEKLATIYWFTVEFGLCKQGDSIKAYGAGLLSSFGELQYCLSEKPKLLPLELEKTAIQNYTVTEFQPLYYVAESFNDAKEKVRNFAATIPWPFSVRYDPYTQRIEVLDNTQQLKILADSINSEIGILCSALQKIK
# Assay: Cell Based Phenylalanine Flux Assay;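 also: Ten-point dose curve from 2-fold serial dilutions, run in duplicate at 0.5% DMSO final, tracer step used 20 µM sepiapterin and 800 µM labeled phenylalanine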
# Parameters: scale not given here
# Conditions: A375 cells expressing R408W PAH; 24 hrs with compound, then 20 μM sepiapterin and 800 μM 13C9,15N-Phenylalanine for 4 hours; 13C-Tyrosine in media by LC-MS; average where tested multiple times
row,SMILES,AC50
1,"Cn1cnc(-c2nc(C(F)F)c(C(=O)N3CCc4[nH]cnc4[C@H]3c3cc4ccccn4n3)o2)c1 (single isomer, unassigned)","E, E"

# Same assay, conditions: A375 cells expressing R408W PAH; 24 hrs with compound, then 20 μM sepiapterin and 800 μM 13C9,15N-Phenylalanine for 4 hours; 13C-Tyrosine in media by LC-MS; average where tested multiple times; read-out: AC50
row,AC50 [nM],SMILES
1,> 5000,"Nc1cnc(N2CCc3[nH]cnc3[C@H]2c2cc3ccccn3n2)nc1 (single isomer, unassigned)"
2,> 5000,Nc1cnc(N2CCc3[nH]cnc3C2c2cc3cccc(C(F)F)n3n2)nc1 (centres unmarked)
3,1000 to 5000,c1ccn2nc(C3c4nc[nH]c4CCN3c3nnc(C4CC4)o3)cc2c1 (centres unmarked)

row,SMILES,AC50 [nM]
1,"Cn1cncc1-c1nnc(C(=O)N2CCc3[nH]cnc3[C@H]2c2cc3cccc(C(F)(F)F)n3n2)o1 (single isomer, unassigned)",1000 to 5000
2,"Fc1cccnc1-c1nnc(N2CCc3[nH]cnc3[C@H]2c2cc3c(C(F)(F)F)cccn3n2)o1 (single isomer, unassigned)",1000 to 5000

# Same assay, conditions: A375 cells expressing human R408W PAH; 24 hrs compound incubation; 13C-Tyrosine by LC-MS; average where tested multiple times; read-out: AC50
row,AC50 [nM],SMILES
1,> 5000,"Cc1nc([C@H](C)O)oc1C(=O)N1CCc2[nH]cnc2[C@@H]1c1cc2c(C)cccn2n1 [Example 751, (2-((S)-1-hydroxyethyl)-4-methyloxazol-5-yl)((R)-4-(4-methylpyrazolo[1,5-a]pyridin-2-yl)-6,7-dihydro-1H-imidazo [4,5-c]pyridin-5(4H)-yl) methanone]"
2,> 5000,"O=C(c1nnc(-c2cnn(C(F)F)c2)o1)N1CCc2[nH]cnc2[C@@H]1c1cc2c(F)cccn2n1 [Example 797, (R)-(5-(1-(difluoromethyl)-1H-pyrazol-4-yl)-1,3,4-oxadiazol-2-yl)(4-(4-fluoropyrazolo[1,5-a]pyridin-2-yl)-6,7-dihydro-1H-imidazo[4,5-c]pyridin-5(4H)-yl)methanone]"
3,> 5000,"Cc1ccc2cc([C@H]3c4nc[nH]c4CCN3C(=O)c3nnc(C(C)(C)F)o3)nn2c1 [Example 1170, (R)-(5-(2-fluoropropan-2-yl)-1,3,4-oxadiazol-2-yl)(4-(6-methylpyrazolo[1,5-a]pyridin-2-yl)-6,7-dihydro-1H-imidazo[4,5-c]pyridin-5(4H)-yl)methanone]"
4,1000 to 5000,"O=C(c1ccnn1C(F)F)N1CCc2[nH]cnc2[C@@H]1c1cc2cc(C(F)(F)F)ccn2n1 [Example 1133, (R)-(1-(difluoromethyl)-1H-pyrazol-5-yl)(4-(5-(trifluoromethyl)pyrazolo [1,5-a]pyridin-2-yl)-6,7-dihydro-1H-imidazo[4,5-c]pyridin-5(4H)-yl)methanone]"
5,1000 to 5000,"O=C(CC1CC(F)C1)N1CCc2[nH]cnc2[C@@H]1c1cc2ccccn2n1 (stereo partly drawn) [Example 637, (R)-2-(3-fluorocyclobutyl)-1-(4-(pyrazolo[1,5-a]pyridin-2-yl)-6,7-dihydro-1H-imidazo [4,5-c]pyridin-5(4H)-yl)ethanone]"
6,1000 to 5000,"O=C(c1nnc(-c2ccccn2)o1)N1CCc2[nH]cnc2[C@@H]1c1cc2c(C(F)F)cccn2n1 [Example 1315, (R)-(4-(4-(difluoromethyl)pyrazolo[1,5-a]pyridin-2-yl)-6,7-dihydro-1H-imidazo [4,5-c]pyridin-5(4H)-yl)(5-(pyridin-2-yl)-1,3,4-oxadiazol-2-yl)methanone]"
7,1000 to 5000,"O=C(c1nnc(-c2cccnc2)o1)N1CCc2[nH]cnc2[C@@H]1c1cc2cccc(C(F)(F)F)n2n1 [Example 1341, (R)-(5-(pyridin-3-yl)-1,3,4-oxadiazol-2-yl)(4-(7-(trifluoromethyl)pyrazolo [1,5-a]pyridin-2-yl)-6,7-dihydro-1H-imidazo[4,5-c]pyridin-5(4H)-yl)methanone]"
8,1000 to 5000,"Cn1nc(C2CC2)nc1C(=O)N1CCc2[nH]cnc2[C@@H]1c1cc2c(Cl)cccn2n1 [Example 1073, (R)-(4-(4-chloropyrazolo [1,5-a]pyridin-2-yl)-6,7-dihydro-1H-imidazo[4,5-c]pyridin-5(4H)-yl)(3-cyclopropyl-1-methyl-1H-1,2,4-triazol-5-yl)methanone]"
9,> 5000,"Cc1ncccc1-c1nnc(C(=O)N2CCc3[nH]cnc3[C@@H]2c2cc3ccccn3n2)o1 [Example 1365, (R)-(5-(2-methylpyridin-3-yl)-1,3,4-oxadiazol-2-yl)(4-(pyrazolo[1,5-a]pyridin-2-yl)-6,7-dihydro-1H-imidazo[4,5-c]pyridin-5(4H)-yl)methanone]"
10,1000 to 5000,"Cc1cccn2nc([C@H]3c4nc[nH]c4CCN3C(=O)c3ncnn3C)cc12 [Example 839, (R)-(1-methyl-1H-1,2,4-triazol-5-yl)(4-(4-methylpyrazolo[1,5-a]pyridin-2-yl)-6,7-dihydro-1H-imidazo[4,5-c]pyridin-5(4H)-yl)methanone]"

# Same assay, conditions: A375 cells expressing human R408W PAH; 24 hrs with compound, then sepiapterin and 13C9,15N-Phenylalanine for 4 hours; 13C-Tyrosine by LC-MS; average where tested multiple times; read-out: AC50
row,SMILES,AC50 [nM]
1,"Cn1ccc(-c2ccc3c(C(=O)N4CCc5[nH]cnc5[C@@H]4c4cc5ccccn5n4)cnn3c2)n1 [Example 1435, (R)-(6-(1-methyl-1H-pyrazol-3-yl)pyrazolo[1,5-a]pyridin-3-yl)(4-(pyrazolo [1,5-a]pyridin-2-yl)-6,7-dihydro-1H-imidazo[4,5-c]pyridin-5(4H)-yl)methanone]",1000 to 5000
2,"Cn1ccc(-c2ccc3c(C(=O)N4CCc5[nH]cnc5[C@H]4c4cc5ccccn5n4)cnn3c2)n1 [Example 1434, (S)-(6-(1-methyl-1H-pyrazol-3-yl)pyrazolo[1,5-a]pyridin-3-yl)(4-(pyrazolo [1,5-a]pyridin-2-yl)-6,7-dihydro-1H-imidazo[4,5-c]pyridin-5(4H)-yl)methanone]",500 to 1000

# Second part, the compound after the results:
row,AC50 [nM],SMILES
1,> 5000,"CC(F)(F)c1nnc(N2CCc3[nH]cnc3[C@@H]2c2cc3c(Cl)cccn3n2)o1 [Example 2232, (R)-2-(4-(4-chloropyrazolo [1,5-a]pyridin-2-yl)-1,4,6,7-tetrahydro-5H-imidazo [4,5-c]pyridin-5-yl)-5-(1,1-difluoroethyl)-1,3,4-oxadiazole]"
2,> 5000,"Cc1cccc(-c2nnc(N3CCc4[nH]cnc4[C@@H]3c3cc4c(C(F)F)cccn4n3)o2)n1 [Example 2346, (R)-2-(4-(4-(difluoromethyl)pyrazolo[1,5-a]pyridin-2-yl)-1,4,6,7-tetrahydro-5H-imidazo[4,5-c]pyridin-5-yl)-5-(6-methylpyridin-2-yl)-1,3,4-oxadiazole]"
3,< 500,"O=C(c1nnc(C2CC(F)(F)C2)o1)N1CCc2[nH]cnc2[C@H]1c1cc2c(Cl)cccn2n1 [Example 1587, (S)-(4-(4-chloropyrazolo [1,5-a]pyridin-2-yl)-6,7-dihydro-1H-imidazo[4,5-c]pyridin-5(4H)-yl)(5-(3,3-difluorocyclobutyl)-1,3,4-oxadiazol-2-yl)methanone]"
4,< 500,"O=C(c1nnc(C2CCC2)o1)N1CCc2[nH]cnc2[C@H]1c1cc2c(Cl)cccn2n1 [Example 1517, (S)-(4-(4-chloropyrazolo [1,5-a]pyridin-2-yl)-6,7-dihydro-1H-imidazo[4,5-c]pyridin-5(4H)-yl)(5-cyclobutyl-1,3,4-oxadiazol-2-yl)methanone]"
5,1000 to 5000,"O=C(c1ocnc1C1CC1)N1CCc2[nH]cnc2[C@@H]1c1cc2c(C(F)F)cccn2n1 [Example 2038, (R)-(4-cyclopropyloxazol-5-yl)(4-(4-(difluoromethyl)pyrazolo [1,5-a]pyridin-2-yl)-1,4,6,7-tetrahydro-5H-imidazo[4,5-c]pyridin-5-yl)methanone]"
6,> 5000,"Cc1cccn2nc([C@H]3c4nc[nH]c4CCN3C(=O)c3cnc(-c4cnn(C)c4C)o3)cc12 [Example 1963, (R)-(2-(1,5-dimethyl-1H-pyrazol-4-yl)oxazol-5-yl)(4-(4-methylpyrazolo[1,5-a]pyridin-2-yl)-1,4,6,7-tetrahydro-5H-imidazo[4,5-c]pyridin-5-yl)methanone]"
7,500 to 1000,"Cn1cc(-c2nc(C3CC3)c(C(=O)N3CCc4[nH]cnc4[C@H]3c3cc4c(C(F)F)cccn4n3)o2)cn1 [Example 2114, (S)-(4-cyclopropyl-2-(1-methyl-1H-pyrazol-4-yl)oxazol-5-yl)(4-(4-(difluoromethyl)pyrazolo[1,5-a]pyridin-2-yl)-1,4,6,7-tetrahydro-5H-imidazo[4,5-c]pyridin-5-yl)methanone]"
8,500 to 1000,"Cc1ccc2c(C(=O)N3CCc4[nH]cnc4[C@H]3c3cc4c(C)cccn4n3)cnn2c1 [Example 1668, (S)-(4-(4-methylpyrazolo [1,5-a]pyridin-2-yl)-6,7-dihydro-1H-imidazo [4,5-c]pyridin-5(4H)-yl)(6-methylpyrazolo[1,5-a]pyridin-3-yl)methanone]"
9,500 to 1000,"Fc1cccn2nc([C@@H]3c4nc[nH]c4CCN3c3nnc(-c4ccncn4)o3)cc12 [Example 2178, (S)-2-(4-(4-fluoropyrazolo [1,5-a]pyridin-2-yl)-1,4,6,7-tetrahydro-5H-imidazo[4,5-c]pyridin-5-yl)-5-(pyrimidin-4-yl)-1,3,4-oxadiazole]"
10,500 to 1000,"Cc1cccn2nc([C@@H]3c4nc[nH]c4CCN3c3nnc(-c4cccnc4F)o3)cc12 [Example 2264, (S)-2-(2-fluoropyridin-3-yl)-5-(4-(4-methylpyrazolo[1,5-a]pyridin-2-yl)-1,4,6,7-tetrahydro-5H-imidazo[4,5-c]pyridin-5-yl)-1,3,4-oxadiazole]"
11,> 5000,"CC(C)c1cccn2nc([C@H]3c4nc[nH]c4CCN3c3nnc(C(C)(F)F)o3)cc12 [Example 2230, (R)-2-(1,1-difluoroethyl)-5-(4-(4-isopropylpyrazolo[1,5-a]pyridin-2-yl)-1,4,6,7-tetrahydro-5H-imidazo[4,5-c]pyridin-5-yl)-1,3,4-oxadiazole]"
